The source of these data is patent US5789434A, “Derivatives of substituted 4-biarylbutyric acid as matrix metalloprotease inhibitors” (priority 1995, dated 1998).

pIC50: −log10 of the molar value.

What all share (type): biochemical
The target of assay [1] is T1, MMP-3 (Homo sapiens, UniProt P08254).
T1 construct: Truncated Prostromelysin-257 was expressed in a soluble form in E.coli; made in house; host or cells: E. coli
Briefly: Automated MMP Profiling Assay, MMP-3 fluorogenic. As to conditions: for pIC50: 96-well automated, P218. The source says:
This assay with each invention compound was run with the three enzymes MMP-3, MMP-9 and MMP-2 in parallel as adapted for a 96-well microtitre plate using a Hamilton A® workstation.

Assay [2] addresses T2, MMP-9 (Homo sapiens, UniProt P14780).
T2 construct: from tissue; host or cells: human polymorphonuclear leukocytes (PMN) from whole blood (New York Blood Center), PMA-stimulated supernatant
Briefly: Automated MMP Profiling Assay, MMP-9 fluorogenic. As to conditions: for pIC50: 96-well automated, P218.

In assay [3] the target is T3, MMP-2 (Homo sapiens, UniProt P08253).
T3 sequence (P08253 110-660): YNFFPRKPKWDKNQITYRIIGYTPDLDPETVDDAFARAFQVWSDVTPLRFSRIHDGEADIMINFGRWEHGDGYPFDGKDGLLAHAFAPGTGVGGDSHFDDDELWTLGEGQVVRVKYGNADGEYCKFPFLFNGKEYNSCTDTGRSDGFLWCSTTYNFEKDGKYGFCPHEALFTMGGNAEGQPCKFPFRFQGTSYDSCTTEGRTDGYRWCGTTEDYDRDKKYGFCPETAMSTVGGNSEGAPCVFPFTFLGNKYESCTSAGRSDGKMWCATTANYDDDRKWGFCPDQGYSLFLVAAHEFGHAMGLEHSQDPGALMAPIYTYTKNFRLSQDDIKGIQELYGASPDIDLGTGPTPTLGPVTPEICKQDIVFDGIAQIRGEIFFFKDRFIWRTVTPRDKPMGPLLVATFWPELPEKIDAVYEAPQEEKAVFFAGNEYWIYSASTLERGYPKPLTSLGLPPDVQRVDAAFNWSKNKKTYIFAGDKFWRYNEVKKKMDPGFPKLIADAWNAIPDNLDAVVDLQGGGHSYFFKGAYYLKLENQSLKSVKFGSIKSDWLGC
Briefly: Automated MMP Profiling Assay, MMP-2 fluorogenic. As to conditions: for pIC50: 96-well automated, P218, read-out: MMP-2 Fluorogenic IC50 (profiling).

T2 sequence (P14780 107-707 limits assumed): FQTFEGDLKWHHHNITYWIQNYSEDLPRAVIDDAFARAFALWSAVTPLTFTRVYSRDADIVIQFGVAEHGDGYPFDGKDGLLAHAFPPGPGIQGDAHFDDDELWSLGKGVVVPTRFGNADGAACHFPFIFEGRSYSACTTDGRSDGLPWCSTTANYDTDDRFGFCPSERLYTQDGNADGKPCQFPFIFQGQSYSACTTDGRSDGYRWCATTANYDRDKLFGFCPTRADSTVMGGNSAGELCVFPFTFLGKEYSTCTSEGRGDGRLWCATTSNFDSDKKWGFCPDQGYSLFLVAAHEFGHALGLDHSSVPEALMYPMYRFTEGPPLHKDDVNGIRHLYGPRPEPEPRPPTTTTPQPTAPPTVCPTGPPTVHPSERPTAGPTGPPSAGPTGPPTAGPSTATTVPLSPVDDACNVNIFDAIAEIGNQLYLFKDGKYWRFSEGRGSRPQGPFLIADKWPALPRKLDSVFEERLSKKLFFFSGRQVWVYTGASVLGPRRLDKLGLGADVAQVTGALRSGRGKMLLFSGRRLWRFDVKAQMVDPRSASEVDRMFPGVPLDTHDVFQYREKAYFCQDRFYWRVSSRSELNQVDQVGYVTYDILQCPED
T1 sequence (P08254 100-274 limits assumed): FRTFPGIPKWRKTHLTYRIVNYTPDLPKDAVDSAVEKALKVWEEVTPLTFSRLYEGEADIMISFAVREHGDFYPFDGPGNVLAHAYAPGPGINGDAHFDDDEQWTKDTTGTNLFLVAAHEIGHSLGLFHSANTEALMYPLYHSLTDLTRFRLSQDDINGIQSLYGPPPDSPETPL

As for `O=C(CC(CCNC(=O)c1ccccc1C(=O)O)C(=O)O)c1ccc(-c2ccc(Cl)cc2)cc1` (stereo not drawn) [Example 279, [1,1'-Biphenyl]-4-butanoic acid, α-[2-[(2-carboxybenzoyl)amino]ethyl]-4'-chloro-γ-oxo-], the pIC50 in assay [1] is 6.40; in assay [2], 6.54; in assay [3], 7.17.
Consider `CC(=O)Oc1ccc2c(c1)C(=O)N(CCC(CC(=O)c1ccc(-c3ccc(Cl)cc3)cc1)C(=O)O)C2=O` (stereo not drawn) [Example 425, 2H-Isoindole-2-butanoic acid, 5-(acetyloxy)-α-[2-(4'-chloro[1,1'-biphenyl]-4-7l)2-oxoetyl]-1,3-dihydro-1,3-dioxo-], for which the pIC50 in assay [1] was 8.42; in assay [2] it was 8.92; in assay [3] it was 7.85.
Regarding `Cc1ccc(/C=C/[C@@H]2CC[C@H](C(=O)c3ccc(-c4ccc(Cl)cc4)cc3)[C@H]2C(=O)O)cc1` (relative stereo) [Example 363, Cyclopentanecarboxylic acid, 2-[(4'-chloro[1,1'-biphenyl]-4-yl)carbonyl]-5-[2-(4-methylphenyl)ethenyl]-, [1α,2β,5β(E)]-], the pIC50 in assay [1] is 5.30; in assay [3], over 5.30. In assay [2], this molecule came in with an inhibition at 5 µM of 37%.
With `CCCCCOc1ccc(-c2ccc(C(=O)C[C@@H](CCCc3ccccc3)C(=O)O)cc2)cc1` [Example 87, 4-[4-(4-pentyloxyphenyl)phenyl]-4-oxo-2R-(3-phenylpropyl)butanoic acid], the inhibition at 5 µM worked out at 8% in assay [1], 0% in assay [2] and 40% in assay [3] (at 5 μM).
Turning to `O=C(NC[C@@H]1CC[C@H](C(=O)c2ccc(-c3ccc(Cl)cc3)cc2)[C@H]1C(=O)O)OCc1ccccc1` (relative stereo) [Example 377], the values for the pIC50 in assay [1], in assay [2] and in assay [3] were 7.62, 7.36 and 7.55, respectively.
Take `CCN(CC)C(=O)c1ccc(CCC(CC(=O)c2ccc(-c3ccc(Cl)cc3)cc2)C(=O)O)cc1` (stereo not drawn) [Example 151, [1,1'-Biphenyl]-4-butanoic acid, 4'-chloro-α-[2-[4-[(diethylamino)carbonyl]phenyl]ethyl]-γ-oxo-]: the pIC50 was 6.43 in assay [1], 6.22 in assay [2] and 7.15 in assay [3].
As to `O=C(CC(CCN1C(=O)c2cccc(OCc3ccccc3)c2C1=O)C(=O)O)c1ccc(-c2ccc(Cl)cc2)cc1` (stereo not drawn) [Example 407, 2H-Isoindole-2-butanoic acid, α-[2-(4'-chloro[1,1'-biphenyl]-4-yl)-2-oxoethyl]-1,3-dihydro-1,3-dioxo-4-(phenylmethoxy)-], the pIC50 in assay [1] was 7.16; in assay [2], 7.44; in assay [3] it was 7.41.
The corresponding values for `O=C(CC(CCc1ccccc1C(=O)O)C(=O)O)c1ccc(-c2ccc(Cl)cc2)cc1` (stereo not drawn) [Example 143, [1,1'-Biphenyl]-4-butanoic acid, α-[2-(2-carboxyphenyl)ethyl]-4'-chloro-γ-oxo-] are 6.51, 5.85 and 6.95.
The like results for `O=C(O)[C@@H]1[C@@H](CN2C(=O)c3ccccc3C2=O)OC[C@H]1C(=O)c1ccc(-c2ccc(Cl)cc2)cc1` (relative stereo) [Example 403, 3-Furancarboxylic acid, 4-[(4'-chloro[1,1'-biphenyl]-4-yl)carbonyl]-2-[(1,3-dihydro-1,3-dioxo-2H-isoindol-2-yl)methyl]tetrahydro-, (2α,3β,4α)-] were, in that order, 7.77, 8.24 and 8.19.
Consider `O=C(O)[C@@H]1CN(Cc2ccccc2)C[C@H]1C(=O)c1ccc(-c2ccc(Cl)cc2)cc1` (relative stereo) [Example 175, 3-Pyrrolidinecarboxylic acid, 4-[(4'-chloro[1,1'-biphenyl]-4-yl)carbonyl]-1-(phenylmethyl)-, trans-], for which the inhibition at 5 µM worked out at 28% in assay [1] and 6% in assay [2]. The pIC50 in assay [3] is 5.30.
As to `O=C(O)[C@H]1[C@H](CN2C(=O)c3cc(Cl)c([N+](=O)[O-])cc3C2=O)CC[C@@H]1C(=O)c1ccc(-c2ccc(Cl)cc2)cc1` (relative stereo) [Example 390, Cyclopentanecarboxylic acid, 2-[(4'-chloro[1,1'-biphenyl]-4-yl)carbonyl]-5-[(5-chloro-1,3-dihydro-6-nitro-1,3-dioxo-2H-isoindol-2-yl)methyl]-, (1α,2β,5β)-], the values for the pIC50 in assay [1], in assay [2] and in assay [3] were 8.00, 8.92 and 7.82, respectively.
With `CC(=O)O[C@H]1C[C@@H](C(=O)c2ccc(-c3ccc(Cl)cc3)cc2)[C@H]1C(=O)O` (relative stereo) [Example 393, Cyclobutanecarboxylic acid, 2-(acetyloxy)-4-[(4'-chloro[1,1'-biphenyl]-4-yl)carbonyl]-, (1α,2α,4α)-], the inhibition at 5 µM is 18% in assay [1] and 38% in assay [2]. Also, the pIC50 in assay [3] was 5.70.
In the case of `CC(C)COC(=O)N1CC[C@H](C(=O)c2ccc(-c3ccc(Cl)cc3)cc2)[C@H]1C(=O)O` [Example 172, 1,2-PYrrolidinecarboxylic acid, 3-[(4'-chloro[1,1'-biphenyl]-4-yl)carbonyl]-, 1-(2-methylpropyl) ester, (2S-trans)-], the pIC50 in assay [1] was 6.34; in assay [2] it was 5.71; in assay [3] it was 6.76.
`Cc1ccc(COc2ccc(-c3ccc(C(=O)CC(CCCc4ccccc4)C(=O)O)cc3)cc2)cc1` (stereo not drawn) [Example 103, [1,1'-Biphenyl]-4-butanoic acid, 4'-[(4-methylphenyl)methoxy]-γ-oxo-α-(3-phenylpropyl)-]: the results for the pIC50 in assay [1] and in assay [3] were 7.24 and 7.52, respectively. The inhibition at 5 µM in assay [2] was 28%.
`CCCCC#Cc1ccc(-c2ccc(C(=O)CC(CCCc3ccccc3)C(=O)O)cc2)cc1` (stereo not drawn) [Example 352, [1,1'-Biphenyl]-4-butanoic acid, 4'-(1-hexynyl)-γ-oxo-α-(3-phenylpropyl)-]: the values for the pIC50 in assay [1], in assay [2] and in assay [3] were 6.89, 6.04 and 7.21, respectively.
The corresponding values for `COc1ccc2c(c1)C(=O)N(CCC(CC(=O)c1ccc(-c3ccc(Cl)cc3)cc1)C(=O)O)C2=O` (stereo not drawn) [Example 422, 2H-Isoindole-2-butanoic acid, α-[2-(4'chloro[1,1'-biphenyl]-4-yl)-2-oxoethyl]-1,3-dihydro-5-methoxy-1,3-dioxo-] are 8.08, 8.80 and 7.85.
The corresponding values for `Cc1ccc(C(=O)OC[C@@H]2CC[C@H](C(=O)c3ccc(-c4ccc(Cl)cc4)cc3)[C@H]2C(=O)O)cc1` (relative stereo) [Example 380, Benzoic acid, 4-methyl-, [2-carboxy-3-[(4'-chloro[1,1'-biphenyl]-4-yl)carbonyl]cyclopentyl]methyl ester, (1α,2β,3α)-] are 7.34, 7.40 and 7.16.
In the case of `O=C(CC(CCCc1ccccc1)C(=O)O)c1ccc(-c2cccnc2)cc1` (stereo not drawn) [Example 70, Benzenepentanoic acid, α-[2-oxo-2-[4-(3-pyridinyl)phenyl]ethyl]-], the inhibition at 5 µM in assay [1] was 44%; in assay [2], 7%. In assay [3], the negative logarithm of the IC50 (pIC50) was 5.76.
As to `O=C(O)[C@H]1[C@H](COc2ccccc2)CC[C@@H]1C(=O)c1ccc(-c2ccc(Cl)cc2)cc1` (relative stereo) [Example 366, Cyclopentanecarboxylic acid, 2-[(4'-chloro[1,1'-biphenyl]-4-yl)carbonyl]-5-(phenoxymethyl)-, (1α,2β,5β)-], the pIC50 in assay [1] was 7.66; in assay [2], 7.25; in assay [3], 8.17.
Regarding `O=C(c1ccc(-c2ccc(Cl)cc2)cc1)[C@H]1CCN(C(=O)NCc2ccccc2)[C@@H]1C(=O)O` [Example 168, L-Proline, 3-[(4'-chloro[1,1'-biphenyl]-4-yl)carbonyl]-1-[[(phenylmethyl)amino]carbonyl]-, trans-], the pIC50 in assay [1] was 7.31; in assay [2], 6.79; in assay [3], 7.82.
`CCN(CC)C(=O)c1cccc(CCC(CC(=O)c2ccc(-c3ccc(Cl)cc3)cc2)C(=O)O)c1` (stereo not drawn) [Example 144, 4-[4-(4-chlorophenyl)phenyl]-4-oxo-2-[2-(3-N,N-diethylcarbamoyl)phenyl]butanoic acid]: the pIC50 in assay [1] was 7.82; in assay [2], 7.54; in assay [3], 8.47.
The like results for `O=C(O)[C@@H]1[C@@H](C(=O)c2ccc(-c3ccc(Cl)cc3)cc2)CC[C@H]1SCc1ccccc1` (relative stereo) [Example 441, Cyclopentanecarboxylic acid, 2-[(4'-chloro[1,1'-biphenyl]-4-yl)carbonyl]-5-[(phenylmethyl)thio]-, (1α,2β,5β)-] were, in that order, 7.42, 6.83 and 7.57.
